{
  "source": "paper PMC7957917",
  "about": "(ACS Medicinal Chemistry Letters, 2021)",
  "key": {"rats": {"test_system": "rats", "assay": "Tolerability after intravenous treatment of rats", "settings": "1 mg/kg iv, three rats"}, "ICR mice [1]": {"test_system": "ICR mice", "settings": "ip, cited from earlier work; for tolerated dose: four mice per group"}, "ICR mice [2]": {"test_system": "ICR mice", "assay": "Acute toxicity study in mice", "settings": "ip, HCl salts, four mice per group, doses 2.5, 5, 10, 15 mg/kg every 24 h"}, "WNV (strain New York 99)": {"test_system": "WNV (strain New York 99)", "settings": "Huh-7 cells, 48 h postinfection"}, "SARS-CoV-2": {"test_system": "SARS-CoV-2", "settings": "infected Calu-3 cells; cited from earlier work"}, "RSV A2 strain": {"test_system": "RSV A2 strain", "assay": "Multicycle replication of RSV in A549 cells", "assay_type": "cell-based, respiratory syncytial virus"}, "DENV-2 (strain 16681)": {"test_system": "DENV-2 (strain 16681)", "settings": "Huh-7 cells, 48 h postinfection"}, "[3]": {"assay": "Pharmacokinetic characterization in rats", "assay_type": "in vivo, Sprague Dawley rats", "settings": "rat, ip, 2.5 mg/kg"}},
  "note": "Several values for one entry are separate records, joined by “and”; a condition that tells them apart may be missing. Equal values may be shown once. Read-outs that look alike come from different tables or passages of the source.",
  "data": [
    {"smiles": "CC(C)(C)[C@H](NC(=O)[C@H](CCCNC(=N)N)NC(=O)Cc1ccc(CNC(=N)N)cc1)C(=O)N[C@@H](CCCNC(=N)N)C(=O)NCc1ccc(C(=N)N)cc1", "note": "[Inhibitor 1]", "values": [
      {"measurement": "tolerability after iv treatment", "setting": "rats", "result": "two of three rats died within 90 min"},
      {"measurement": "number of deaths at next higher dose", "setting": "ICR mice [1]; at 5 mg/kg", "result": "all mice died and 4 of 4 at 5 mg/kg"},
      {"measurement": "tolerated dose", "setting": "ICR mice [1]", "result": 2.5, "unit": "mg/kg"}
    ]},
    {"smiles": "CC(C)(C)[C@H](NC(=O)[C@H](CCCNC(=N)N)NC(=O)Cc1ccc(CNC(=N)N)cc1)C(=O)N[C@@H](CCCCN)C(=O)NCc1ccc(C(=N)N)cc1", "note": "[Inhibitor 2]", "values": [
      {"measurement": "number of deaths at next higher dose", "setting": "ICR mice [1]; at 10 mg/kg", "result": "4 of 4 at 10 mg/kg"},
      {"measurement": "tolerated dose", "setting": "ICR mice [1]", "result": 5, "unit": "mg/kg"}
    ]},
    {"smiles": "CC(C)(C)[C@H](NC(=O)[C@H](CCONC(=N)N)NC(=O)Cc1ccc(CN)cc1)C(=O)N[C@@H](CCCCN)C(=O)NCc1ccc(C(=N)N)cc1", "note": "[Inhibitor 5]", "values": [
      {"measurement": "tolerated dose", "setting": "ICR mice [2]", "result": 15, "unit": "mg/kg"}
    ]},
    {"smiles": "CC(C)(C)[C@H](NC(=O)[C@H](CCONC(=N)N)NC(=O)Cc1ccc(CNC(=N)N)cc1)C(=O)N[C@@H](CCONC(=N)N)C(=O)NCc1ccc(C(=N)N)cc1", "note": "[Inhibitor 8]", "values": [
      {"measurement": "antiviral potency against WNV (virus titers)", "setting": "WNV (strain New York 99)", "result": "significant antiviral potency"},
      {"measurement": "tolerated dose", "setting": "ICR mice [2]", "result": 15, "unit": "mg/kg"},
      {"measurement": "reduction of SARS-CoV-2 replication", "setting": "SARS-CoV-2", "result": "significant reduction of the SARS-CoV-2 replication"},
      {"measurement": "RSV inhibition compared with reference inhibitor 1 (viral titers)", "setting": "RSV A2 strain; MOI 1, 0.1-10 µM inhibitor, 16-72 h post infection", "result": "strongest antiviral efficacy"},
      {"measurement": "inhibition of RSV replication at 10 µM", "setting": "RSV A2 strain; initial tests, 10 µM", "result": "complete inhibition of virus replication"},
      {"measurement": "tolerability after iv treatment", "setting": "rats", "result": "well-accepted in all three rats without any signs of side effects"},
      {"measurement": "antiviral potency against DENV-2 (virus titers)", "setting": "DENV-2 (strain 16681)", "result": "significant antiviral potency"},
      {"measurement": "period with plasma levels >1000 ng/mL (∼1.3 μM)", "setting": "[3]", "result": "approximately 3 h"}
    ]}
  ]
}
